Source: US11591355B2 (Peloton Therapeutics, Inc., priority 2017, dated 2023)

Experiments:
[1] = biological target: T1, Human CD73 (Homo sapiens, UniProt P21589); assay: CD73 Enzyme Assay; format: biochemical; conditions: 0.25 nM hCD73, 25 μM AMP, kinetic read at 360 nm; read-out: CD73 Enzyme Assay IC50
T1 construct: purchased R&D Systems; host or cells: CHO cells
T1 sequence (P21589 27-549): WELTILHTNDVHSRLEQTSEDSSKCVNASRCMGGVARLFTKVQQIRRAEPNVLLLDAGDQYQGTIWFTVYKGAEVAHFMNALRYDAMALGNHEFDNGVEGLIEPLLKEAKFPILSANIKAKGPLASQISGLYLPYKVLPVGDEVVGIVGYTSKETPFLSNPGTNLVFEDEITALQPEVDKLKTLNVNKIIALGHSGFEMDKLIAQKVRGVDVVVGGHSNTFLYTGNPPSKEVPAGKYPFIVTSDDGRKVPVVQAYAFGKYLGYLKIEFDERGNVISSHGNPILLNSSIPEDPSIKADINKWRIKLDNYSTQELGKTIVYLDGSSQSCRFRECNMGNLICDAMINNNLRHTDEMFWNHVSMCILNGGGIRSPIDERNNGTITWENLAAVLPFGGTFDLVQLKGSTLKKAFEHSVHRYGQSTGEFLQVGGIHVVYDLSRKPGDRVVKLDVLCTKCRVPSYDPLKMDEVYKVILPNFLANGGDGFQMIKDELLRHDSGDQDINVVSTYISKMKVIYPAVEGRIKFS

[2] = biological target: T2, CD73 on U138 human neuroglioma cells (Homo sapiens, UniProt P21589); assay: CD73 Cell-Based Assay; conditions: U138 cells, AMP substrate, 2 hours at 37° C., inorganic phosphate by malachite green
T2 construct: U138 cells were obtained from ATCC and cultured in DMEM with 10% FBS; host or cells: U138 human neuroglioma cells
T2 sequence (P21589 27-549): T1 sequence (P21589 27-549)
Procedure, shortened: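 Whole U138 cells washed free of phosphate were incubated with 200 μM AMP (mixture concentration before equal-volume addition) plus compound in HEPES-buffered saline, pH 7.4, for 2 h at 37 °C, 5% CO2. Adenosine-forming activity read as inorganic phosphate released into supernatant by malachite green.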

Row | IC50 [1] | IC50 [2] | SMILES
1 | 10 to 100 nM | 10 to 100 nM | O=P(O)(O)COC[C@H]1O[C@@H](n2ccc3c(N[C@@H](CO)c4ccccc4)nc(Cl)nc32)[C@H](O)[C@@H]1O [Compound 218, [(2R,3S,4R,5R)-5-[2-chloro-4-[[(1R)-2-hydroxy-1-phenyl-ethyl]amino]pyrrolo-[2,3-d]pyrimidin-7-yl]-3,4-dihydroxy-tetra-hydrofuran-2-yl]-methoxymethylphos-phonic acid]
2 | < 10 nM | < 10 nM | O=P(O)(O)CP(=O)(O)OC[C@H]1O[C@@H](n2ccc3c(NC4CCCC4)nc(Cl)nc32)[C@H](O)[C@@H]1O [Compound 229]
3 | < 10 nM | < 10 nM | O=P(O)(O)COC[C@H]1O[C@@H](n2ccc3c(NC4CCCC4)nc(I)nc32)[C@H](O)[C@@H]1O [Compound 230, [(2R,3S,4R,5R)-5-[4-(cyclopentylamino)-2-iodo-pyrrolo[2,3-d]-pyrimidin-7-yl]-3,4-dihydroxy-tetrahydro-furan-2-yl]methoxy-methylphosphonic acid]
4 | 10 to 100 nM | 10 to 100 nM | O=P(O)(O)COC[C@H]1O[C@@H](n2ccc3c(NC4CCCC4)nc(C(F)(F)F)nc32)[C@H](O)[C@@H]1O [Compound 231, [(2R,3S,4R,5R)-5-[4-(cyclopentylamino)-2-(trifluoromethyl)-pyrrolo[2,3-d]-pyrimidin-7-yl]-3,4-dihydroxy-tetrahydro-furan-2-yl]methoxy-methylphosphonic acid]
5 | 10 to 100 nM | 10 to 100 nM | O=P(O)(COC[C@H]1O[C@@H](n2ccc3c(NC4CCCC4)nc(Cl)nc32)[C@H](O)[C@@H]1O)OCC(F)(F)F [Compound 232, [(2R,3S,4R,5R)-5-[2-chloro-4-(cyclopentyl-amino)pyrrolo[2,3-d]-pyrimidin-7-yl]-3,4-dihydroxy-tetrahydro-furan-2-yl]methoxy-methyl-(2,2,2-trifluoro-ethoxy)phosphinic acid]
6 | < 10 nM | < 10 nM | O=P(O)(O)COC[C@H]1O[C@@H](n2ncc3c(NC4CCCC4)nc(Cl)nc32)[C@H](O)[C@@H]1O [Compound 240, ((((2R,3S,4R,5R)-5-(6-chloro-4-(cyclopentylamino)-1H-pyrazolo[3,4-d]pyrimidin-1-yl)-3,4-dihydroxytetrahydrofuran-2-yl)methoxy)methyl)phosphonic acid]
7 | < 10 nM | < 10 nM | O=P(O)(O)COC[C@H]1O[C@@H](n2ccc3c(NC4CCCC4)nc(C#CCO)nc32)[C@H](O)[C@@H]1O [Compound 243, [(2R,3S,4R,5R)-5-[4-(cyclopentylamino)-2-(3-hydroxyprop-1-ynyl)pyrrolo[2,3-d]-pyrimidin-7-yl]-3,4-dihydroxy-tetrahydro-furan-2-yl]methoxy-methylphosphonic acid]
8 | < 10 nM | < 10 nM | C#Cc1nc(NC2CCCC2)c2ccn([C@@H]3O[C@H](COCP(=O)(O)O)[C@@H](O)[C@H]3O)c2n1 [Compound 244, [(2R,3S,4R,5R)-5-[4-(cyclopentylamino)-2-ethynyl-pyrrolo[2,3-d]-pyrimidin-7-yl]-3,4-dihydroxy-tetrahydro-furan-2-yl]methoxy-methylphosphonic acid]
9 | 10 to 100 nM | 10 to 100 nM | COc1nc(NC2CCCC2)c2ccn([C@@H]3O[C@H](COCP(=O)(O)O)[C@@H](O)[C@H]3O)c2n1 [Compound 247, [(2R,3S,4R,5R)-5-[4-(cyclopentylamino)-2-methoxy-pyrrolo[2,3-d]pyrimidin-7-yl]-3,4-dihydroxy-tetrahydro-furan-2-yl]methoxy-methylphosphonic acid]
10 | 100 to 1000 nM | 100 to 1000 nM | O=P(O)(O)COC[C@H]1O[C@@H](n2ccc3c(NC4CCCC4)nc(Oc4cccnc4)nc32)[C@H](O)[C@@H]1O [Compound 248, [(2R,3S,4R,5R)-5-[4-(cyclopentylamino)-2-(3-pyridyloxy)pyrrolo-[2,3-d]pyrimidin-7-yl]-3,4-dihydroxy-tetra-hydrofuran-2-yl]meth-oxymethylphosphonic acid]
11 | 10 to 100 nM | 10 to 100 nM | O=P(O)(O)COC[C@H]1O[C@@H](n2ccc3c(NC4CCCC4)nc(O)nc32)[C@H](O)[C@@H]1O [Compound 250, [(2R,3S,4R,5R)-5-[4-(cyclopentylamino)-2-hydroxy-pyrrolo[2,3-d]pyrimidin-7-yl]-3,4-dihydroxy-tetrahydro-furan-2-yl]methoxy-methylphosphonic acid]
12 | < 10 nM | < 10 nM | COCC#Cc1nc(NC2CCCC2)c2ccn([C@@H]3O[C@H](COCP(=O)(O)O)[C@@H](O)[C@H]3O)c2n1 [Compound 252, [(2R,3S,4R,5R)-5-[4-(cyclopentylamino)-2-(3-methoxyprop-1-ynyl)pyrrolo[2,3-d]-pyrimidin-7-yl]-3,4-dihydroxy-tetrahydro-furan-2-yl]methoxy-methylphosphonic acid]
13 | < 10 nM | < 10 nM | CC(C)C#Cc1nc(NC2CCCC2)c2ccn([C@@H]3O[C@H](COCP(=O)(O)O)[C@@H](O)[C@H]3O)c2n1 [Compound 253, [(2R,3S,4R,5R)-5-[4-(cyclopentylamino)-2-(3-methylbut-1-ynyl)pyrrolo[2,3-d]-pyrimidin-7-yl]-3,4-dihydroxy-tetrahydro-furan-2-yl]methoxy-methylphosphonic acid]
14 | 100 to 1000 nM | 100 to 1000 nM | CC(C)(C)C#Cc1nc(NC2CCCC2)c2ccn([C@@H]3O[C@H](COCP(=O)(O)O)[C@@H](O)[C@H]3O)c2n1 [Compound 254, [(2R,3S,4R,5R)-5-[4-(cyclopentylamino)-2-(3,3-dimethylbut-1-ynyl)pyrrolo[2,3-d]-pyrimidin-7-yl]-3,4-dihydroxy-tetrahydro-furan-2-yl]methoxy-methylphosphonic acid]
15 | < 10 nM | < 10 nM | O=P(O)(O)COC[C@H]1O[C@@H](n2ccc3c(NC4CCCC4)nc(C#CC4CC4)nc32)[C@H](O)[C@@H]1O [Compound 255, [(2R,3S,4R,5R)-5-[4-(cyclopentylamino)-2-(2-cyclopropyl-ethynyl)pyrrolo[2,3-d]-pyrimidin-7-yl]-3,4-dihydroxy-tetrahydro-furan-2-yl]methoxy-methylphosphonic acid]
16 | < 10 nM | < 10 nM | C[C@H](O)C#Cc1nc(NC2CCCC2)c2ccn([C@@H]3O[C@H](COCP(=O)(O)O)[C@@H](O)[C@H]3O)c2n1 [Compound 256, [(2R,3S,4R,5R)-5-[4-(cyclopentylamino)-2-[(3S)-3-hydroxybut-1-ynyl]pyrrolo[2,3-d]-pyrimidin-7-yl]-3,4-dihydroxy-tetrahydro-furan-2-yl]methoxy-methylphosphonic acid]
17 | < 10 nM | < 10 nM | O=P(O)(O)COC[C@H]1O[C@@H](n2ccc3c(NC4CCCC4)nc(OCCO)nc32)[C@H](O)[C@@H]1O [Compound 257, ((((2R,3S,4R,5R)-5-(4-(cyclopentylamino)-2-(2-hydroxyethoxy)-7H-pyrrolo[2,3-d]pyrimidin-7-yl)-3,4-dihydroxytetrahydrofuran-2-yl)methoxy)methyl)phosphonic acid]
18 | 10 to 100 nM | < 10 nM | O=P(O)(O)COC[C@H]1O[C@@H](n2ccc3c(NC4CCCC4)nc(OCCCO)nc32)[C@H](O)[C@@H]1O [Compound 258, [(2R,3S,4R,5R)-5-[4-(cyclopentylamino)-2-(3-hydroxypropoxy)-pyrrolo[2,3-d]pyrimidin-7-yl]-3,4-dihydroxy-tetrahydrofuran-2-yl]-methoxymethylphos-phonic acid]
19 | 10 to 100 nM | 10 to 100 nM | COCCOc1nc(NC2CCCC2)c2ccn([C@@H]3O[C@H](COCP(=O)(O)O)[C@@H](O)[C@H]3O)c2n1 [Compound 260, [(2R,3S,4R,5R)-5-[4-(cyclopentylamino)-2-(2-methoxyethoxy)-pyrrolo[2,3-d]-pyrimidin-7-yl]-3,4-dihydroxy-tetrahydro-furan-2-yl]methoxy-methylphosphonic acid]

Row | SMILES | IC50 [1] | IC50 [2]
20 | O=P(O)(O)COC[C@H]1O[C@@H](n2ccc3c(OC4CCCC4)nc(Cl)nc32)[C@H](O)[C@@H]1O [Compound 219, [(2R,3S,4R,5R)-5-[2-chloro-4-(cyclo-pentoxy)pyrrolo[2,3-d]-pyrimidin-7-yl]-3,4-dihydroxy-tetrahydro-furan-2-yl]methoxy-methylphosphonic acid] | 10 to 100 nM | 10 to 100 nM
21 | CC(C)C(=O)COP(=O)(O)COC[C@H]1O[C@@H](n2ccc3c(NC4CCCC4)nc(Cl)nc32)[C@H](O)[C@@H]1O [Compound 222, [(2R,3S,4R,5R)-5-[2-chloro-4-(cyclopentyl-amino)pyrrolo[2,3-d]-pyrimidin-7-yl]-3,4-dihydroxy-tetrahydro-furan-2-yl]methoxy-methyl-(3-methyl-2-oxo-butoxy)phosphinic acid] | 100 to 1000 nM | 100 to 1000 nM
